Data set [1] relates to SCC-7. Kind of data set: Antitumor activity against mouse SCC-7 cells implanted in C3H mouse assessed as tumor growth time at 12 mg/kg, ip treated every other day 3 times in total (reference value: 2.8 +/- 0.6 day). The format is functional.
Data set [2] relates to SCC-7. Kind of data set: Antitumor activity against mouse SCC-7 cells implanted in C3H mouse assessed as tumor growth time delay at 12 mg/kg, ip treated every other day 3 times in total. The format is functional.
In data set [3] the test system is SCC-7. Kind of data set: Antiproliferative activity against mouse SCC-7 cells assessed as cell growth inhibition by CCK8 assay. The format is functional, cell-based.
The next data set concerns UMSCC22B. Kind of data set: Antiproliferative activity against human UMSCC22B cells assessed as cell growth inhibition by CCK8 assay. The format is functional, cell-based. Background: Formazan colour is commonly taken as a measure of viable cells.
The test system of a further data set is PANC-1. Kind of data set: Antiproliferative activity against human PANC-1 cells assessed as cell growth inhibition by CCK8 assay. The format is functional, cell-based.
A further data set relates to M21. Kind of data set: Antiproliferative activity against human M21 cells assessed as cell growth inhibition by CCK8 assay. The format is functional, cell-based.
In the next data set the test system is U-87 MG. Kind of data set: Antiproliferative activity against human U87 cells assessed as cell growth inhibition by CCK8 assay. The format is functional, cell-based, U-87MG ATCC.
Another data set relates to RKO. Kind of data set: Antiproliferative activity against human RKO cells assessed as cell growth inhibition by CCK8 assay. The format is functional, cell-based.
The next data set relates to HT-29. Kind of data set: Antiproliferative activity against human HT-29 cells assessed as cell growth inhibition by CCK8 assay. The format is functional, cell-based.
The next data set deals with SNB-75. Kind of data set: Antiproliferative activity against human SNB-75 cells assessed as cell growth inhibition by CCK8 assay. The format is functional, cell-based.
Another data set has as its system MCF7. Kind of data set: Antiproliferative activity against human MCF7 cells assessed as cell growth inhibition by CCK8 assay. The format is functional, cell-based.
A further data set relates to A498. Kind of data set: Antiproliferative activity against human A498 cells assessed as cell growth inhibition by CCK8 assay. The format is functional, cell-based.
Another data set concerns IMR-32. Kind of data set: Antiproliferative activity against human IMR-32 cells assessed as cell growth inhibition by CCK8 assay. The format is functional, cell-based.
The subject of the next data set is A549. Kind of data set: Antiproliferative activity against human A549 cells assessed as cell growth inhibition by CCK8 assay. The format is functional, cell-based.
The nature of data set [4]: Terminal half life in human plasma. The format is ADME, cell-free. Conditions: read-out: beta t1/2.

`O=C(CBr)N1CCC1`: the figures for the Time in the data set on SCC-7 [1] and in the data set with SCC-7 [2] were 3.8 days and 1 days, respectively.
In the case of `O=C(CBr)N1CC([N+](=O)[O-])([N+](=O)[O-])C1` [NIBROZETONE], the Time with SCC-7 [1] is 4.8 days; in the data set on SCC-7 [2], 2 days. The IC50 (usually the midpoint of a concentration-inhibition curve) in the data set with SCC-7 [3] is 1.8 pM; with UMSCC22B it was 2.3 pM; in the data set with PANC-1, 2.3 pM; in the data set with M21 it was 2.6 pM; in the data set on U-87 MG it was 2.7 pM; in the data set with RKO, 3 pM. For the same compound, the IC50 in the data set with HT-29 was 3.4 pM; with SNB-75 it was 3.8 pM; in the data set with MCF7, 4 pM; with A498 it was 4.9 pM; with IMR-32, 5.1 pM; with A549, 6 pM. In [4], the half-life amounted to 27.6 min.
For the compound `N[C@@H](CSCC(=O)N1CC([N+](=O)[O-])([N+](=O)[O-])C1)C(=O)O`, the Time in the data set with SCC-7 [1] worked out at 3.9 days; in the data set with SCC-7 [2] it was 1.1 days.
`C[N+](C)(C)CC(=O)N1CC([N+](=O)[O-])([N+](=O)[O-])C1`: the Time in the data set with SCC-7 [1] came out at 3.6 days; with SCC-7 [2], 0.8 days.

The values are drawn from ChEMBL document CHEMBL5036323, “Discovery of RRx-001, a Myc and CD47 Downregulating Small Molecule with Tumor Targeted Cytotoxicity and Healthy Tissue Cytoprotective Properties in Clinical Development” (J Med Chem, 2021).
